From US20210355104A1, “ADENOSINE RECEPTOR BINDING COMPOUNDS” (Nikang Therapeuticsm Inc., priority 2018, published 2021)
Values joined by “and” are separate entries in the source; they are usually repeats but may differ in a detail not shown here. Equal values may be shown once.

These compounds were tested against Adenosine A2A receptor (Homo sapiens, UniProt P29274) (assay: cAMP assay in 293A cells stably expressing the adenosine A2A receptor (CGS21680 stimulation, HTRF)). Conditions: 293A cells stably expressing A2A receptor; 0.1% BSA; 1 uM CGS21680 stimulation; replicate values separated by /; read-out: cAMP (nM) 0.1% BSA, 1 uM CGS.
Type: cell-based
Design: expressed in transfected cells; host or cells: 293A cells (Invitrogen, Cat# R705-07) infected with A2A-expressing lentivirus (custom packaged by Biosettia), puromycin selected
Experimental: A 293A cell line (Invitrogen, Cat# R705-07) stably expressing the adenosine A2A receptor was generated in house. Briefly, 293A cells were seeded in 6-well plate and infected with A2A expressing lentivirus (custom packaged by Biosettia) and selected with puromycin (1 ug/ml). Cells survived selection were confirmed for A2A expression by RT-qPCR (RT Reagent: High-Capacity cDNA Reverse Transcription Kit, Applied Biosystems/Thermo Fisher Cat# 4368814, qPCR reagent: SYBR™ Green Master Mix, Applied Biosystems/Thermo Fisher Cat# 4309155). The cells were maintained in DMEM/F12 medium containing 10% FBS, 100 units/ml Penicillin, 100 μg/ml Streptomycin, and 1 μg/ml puromycin at 37° C., 5% CO2. 293A-A2AR cells were harvested on the day of assay and resuspended at 0.6 million cells/ml in DMEM/F12 with 0.1% BSA and 30 U/ml denosine deaminase(Roche, Cat #: 10102121001). Serial dilutions of compounds were prepared in DMEM/F12 with 0.1% BSA to a DMSO concentration of 0.6%. After 4 μl of compound dilutions were added, 4 μl suspended cells were dispensed into low-volume white 384-well plates (Greiner Bio-One). […] The assay plate was then incubated at room temperature for 30 min. 3 μl of d2 conjugated cAMP and 3 μl cryptate conjugated anti-cAMP antibody were then added. D2 conjugated cAMP and cryptate conjugated anti-cAMP antibody (Cisbio, Cat #: 62AM6PEC) were both prepared in cell lysis buffer according to the manufacturer's instruction. After 1 h incubation at room temperature, plates were read in CIARIOstar plate reader (BMG Labtech) using the HTRF detection mode.

Adenosine A2A receptor, sequence (P29274 whole entry): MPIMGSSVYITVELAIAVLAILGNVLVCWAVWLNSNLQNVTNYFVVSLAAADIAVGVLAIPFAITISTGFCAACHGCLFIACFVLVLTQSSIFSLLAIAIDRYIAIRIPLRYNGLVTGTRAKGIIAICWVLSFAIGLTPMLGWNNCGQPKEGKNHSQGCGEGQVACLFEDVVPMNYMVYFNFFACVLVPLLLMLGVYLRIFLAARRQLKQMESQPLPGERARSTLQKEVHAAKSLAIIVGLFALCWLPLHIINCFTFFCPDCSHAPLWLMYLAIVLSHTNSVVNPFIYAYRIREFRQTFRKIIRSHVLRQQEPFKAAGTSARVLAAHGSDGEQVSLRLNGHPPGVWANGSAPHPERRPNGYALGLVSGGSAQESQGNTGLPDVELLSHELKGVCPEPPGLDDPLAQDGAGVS

Row | SMILES | IC50
1 | Cc1cc(-c2c(OCc3cc(-c4nnnn4C)cc(C(C)(C)O)n3)nc(N)nc2-c2ccc(F)cc2)cc(C(F)F)n1 [Example 443, 2-(6-(((2-amino-5-(2-(difluoromethyl)-6-methylpyridin-4-yl)-6-(4-fluorophenyl)pyrimidin-4-yl)oxy)methyl)-4-(1-methyl-1H-tetrazol-5-yl)pyridin-2-yl)propan-2-ol] | 23200 nM
2 | Cc1cc(-c2c(OCc3cc(N4CCOCC4)cc(C(C)(C)O)n3)nc(N)nc2-c2ccc(F)cc2)cc(C(F)F)n1 [Example 424, 2-(6-(((2-amino-5-(2-(difluoromethyl)-6-methylpyridin-4-yl)-6-(4-fluorophenyl)pyrimidin-4-yl)oxy)methyl)-4-morpholinopyridin-2-yl)propan-2-ol] | 5930 nM and 9830 nM
3 | Cc1cc(-c2c(OCc3cc(-c4nn[nH]n4)cc(C(C)(C)O)n3)nc(N)nc2-c2ccc(F)cc2)cc(C(F)F)n1 [Example 441, 2-(6-(((2-amino-5-(2-(difluoromethyl)-6-methylpyridin-4-yl)-6-(4-fluorophenyl)pyrimidin-4-yl)oxy)methyl)-4-(2H-tetrazol-5-yl)pyridin-2-yl)propan-2-ol] | > 3000 nM

Same assay, conditions: 293A-A2AR cells, 0.1% BSA, 1 uM CGS; read-out: cAMP (nM) 0.1% BSA, 1 uM CGS

Row | SMILES | IC50
4 | Cc1cc(-c2c(OCc3cccc(C(C)(O)C(=O)O)n3)nc(N)nc2-c2ccc(F)cc2)cc(C(F)F)n1 (centres unmarked) [Example 394, 2-(6-(((2-amino-5-(2-(difluoromethyl)-6-methylpyridin-4-yl)-6-(4-fluorophenyl)pyrimidin-4-yl)oxy)methyl)pyridin-2-yl)-2-hydroxypropanoic acid] | 865 nM and 496 nM
5 | Cc1cc(-c2c(OCc3cccc(C(C)(C)N)n3)nc(N)nc2-c2ccc(F)cc2)cc(C(F)F)n1 [Example 383, 4-((6-(2-aminopropan-2-yl)pyridin-2-yl)methoxy)-5-(2-(difluoromethyl)-6-methylpyridin-4-yl)-6-(4-fluorophenyl)pyrimidin-2-amine] | 1010 nM
6 | CCc1nnn(CC(=O)O)c1COc1nc(N)nc(-c2ccc(F)cc2)c1-c1cc(C)nc(C(F)F)c1 [Example 233, 2-(5-(((2-amino-5-(2-(difluoromethyl)-6-methylpyridin-4-yl)-6-(4-fluorophenyl)pyrimidin-4-yl)oxy)methyl)-4-ethyl-1H-1,2,3-triazol-1-yl)acetic acid] | 16300 nM
7 | Cc1cc(-c2c(OCc3nnnn3CC(C)(C)O)nc(N)nc2-c2ccc(F)cc2)cc(C(F)F)n1 [Example 292, 1-(5-(((2-amino-5-(2-(difluoromethyl)-6-methylpyridin-4-yl)-6-(4-fluorophenyl)pyrimidin-4-yl)oxy)methyl)-1H-tetrazol-1-yl)-2-methylpropan-2-ol] | 708 nM
8 | Cc1cc(-c2c(OCc3cccc(N4CCC[C@H]4C(=O)O)n3)nc(N)nc2-c2ccc(F)cc2)cc(C(F)F)n1 [Example 311, (6-(((2-amino-5-(2-(difluoromethyl)-6-methylpyridin-4-yl)-6-(4-fluorophenyl)pyrimidin-4-yl)oxy)methyl)pyridin-2-yl)-L-proline] | > 10000 nM
9 | Cc1cc(-c2c(OCc3nccn3CCCC(=O)O)nc(N)nc2-c2ccc(F)cc2)cc(C(F)F)n1 [Example 386, 4-(2-(((2-amino-5-(2-(difluoromethyl)-6-methylpyridin-4-yl)-6-(4-fluorophenyl)pyrimidin-4-yl)oxy)methyl)-1H-imidazol-1-yl)butanoic acid] | 3820 nM
10 | Cc1cc(-c2c(OCc3ccn(C)c(=O)c3)nc(N)nc2-c2ccc(F)cc2)cc(C(F)F)n1 [Example 280, 4-(((2-amino-5-(2-(difluoromethyl)-6-methylpyridin-4-yl)-6-(4-fluorophenyl)pyrimidin-4-yl)oxy)methyl)-1-methylpyridin-2(1H)-one] | 5800 nM
11 | Cc1cc(-c2c(OCc3ncc(C(C)(C)O)n3C)nc(N)nc2-c2ccc(F)cc2)cc(C(F)F)n1 [Example 378, 2-(2-(((2-amino-5-(2-(difluoromethyl)-6-methylpyridin-4-yl)-6-(4-fluorophenyl)pyrimidin-4-yl)oxy)methyl)-1-methyl-1H-imidazol-5-yl)propan-2-ol] | 430 nM and 173 nM and 247 nM
12 | Cc1cc(-c2c(OCc3cccc(C#CC(C)(C)C(=O)O)n3)nc(N)nc2-c2ccc(F)cc2)cc(C(F)F)n1 [Example 384, 4-(6-(((2-amino-5-(2-(difluoromethyl)-6-methylpyridin-4-yl)-6-(4-fluorophenyl)pyrimidin-4-yl)oxy)methyl)pyridin-2-yl)-2,2-dimethylbut-3-ynoic acid] | 15400 nM
13 | CCc1nnn(CC(C)(C)O)c1COc1nc(N)nc(-c2ccc(F)cc2)c1-c1cc(C)nc(C(F)F)c1 [Example 253, 1-(5-(((2-amino-5-(2-(difluoromethyl)-6-methylpyridin-4-yl)-6-(4-fluorophenyl)pyrimidin-4-yl)oxy)methyl)-4-ethyl-1H-1,2,3-triazol-1-yl)-2-methylpropan-2-ol] | 2150 nM
14 | Cc1cc(-c2c(OCc3nc4cc(C(C)(C)C(=O)O)ccc4n3C)nc(N)nc2-c2ccc(F)cc2)cc(C(F)F)n1 [Example 369, 2-(2-(((2-amino-5-(2-(difluoromethyl)-6-methylpyridin-4-yl)-6-(4-fluorophenyl)pyrimidin-4-yl)oxy)methyl)-1-methyl-1H-benzo[d]imidazol-5-yl)-2-methylpropanoic acid] | > 25000 nM
15 | Cc1cc(-c2c(OCc3ccn(C(C)(C)C(=O)O)n3)nc(N)nc2-c2ccc(F)cc2)cc(C(F)F)n1 [Example 388, 2-(3-(((2-amino-5-(2-(difluoromethyl)-6-methylpyridin-4-yl)-6-(4-fluorophenyl)pyrimidin-4-yl)oxy)methyl)-1H-pyrazol-1-yl)-2-methylpropanoic acid] | 7660 nM
16 | Cc1cc(-c2c(OCc3ccc(C)c(C(C)(C)C(=O)O)n3)nc(N)nc2-c2ccc(F)cc2)cc(C(F)F)n1 [Example 377, 2-(6-(((2-amino-5-(2-(difluoromethyl)-6-methylpyridin-4-yl)-6-(4-fluorophenyl)pyrimidin-4-yl)oxy)methyl)-3-methylpyridin-2-yl)-2-methylpropanoic acid] | 21100 nM
17 | CCn1c(COc2nc(N)nc(-c3ccc(F)cc3)c2-c2cc(C)nc(C(F)F)c2)nc2ccc(C(C)(C)C(=O)O)nc21 [Example 365, 2-(2-(((2-amino-5-(2-(difluoromethyl)-6-methylpyridin-4-yl)-6-(4-fluorophenyl)pyrimidin-4-yl)oxy)methyl)-3-ethyl-3H-imidazo[4,5-b]pyridin-5-yl)-2-methylpropanoic acid] | > 25000 nM
18 | Cc1cc(-c2c(OCc3cccc(C(C)(C)NCC(=O)O)n3)nc(N)nc2-c2ccc(F)cc2)cc(C(F)F)n1 [Example 393, (2-(6-(((2-amino-5-(2-(difluoromethyl)-6-methylpyridin-4-yl)-6-(4-fluorophenyl)pyrimidin-4-yl)oxy)methyl)pyridin-2-yl)propan-2-yl)glycine] | 628 nM and 597 nM and 892 nM and 826 nM and 566 nM and 686 nM
19 | Cc1cc(-c2c(OCc3nc(C(C)(C)O)cs3)nc(N)nc2-c2ccc(F)cc2)cc(C(F)F)n1 [Example 366, 2-(2-(((2-amino-5-(2-(difluoromethyl)-6-methylpyridin-4-yl)-6-(4-fluorophenyl)pyrimidin-4-yl)oxy)methyl)thiazol-4-yl)propan-2-ol] | 1690 nM
20 | CCc1nnn(CC(C)(C)C(=O)O)c1COc1nc(N)nc(-c2ccc(F)cc2)c1-c1cc(C)nc(C(F)F)c1 [Example 301, 3-(5-(((2-amino-5-(2-(difluoromethyl)-6-methylpyridin-4-yl)-6-(4-fluorophenyl)pyrimidin-4-yl)oxy)methyl)-4-ethyl-1H-1,2,3-triazol-1-yl)-2,2-dimethylpropanoic acid] | > 10000 nM
21 | Cc1cc(-c2c(OCc3cccc(C(=O)O)n3)nc(N)nc2-c2ccc(F)cc2)cc(C(F)F)n1 [Example 274, 6-(((2-amino-5-(2-(difluoromethyl)-6-methylpyridin-4-yl)-6-(4-fluorophenyl)pyrimidin-4-yl)oxy)methyl)picolinic acid] | 3210 nM
22 | Cc1cc(-c2c(OCc3nc4cc(C(C)(C)O)ccc4n3C)nc(N)nc2-c2ccc(F)cc2)cc(C(F)F)n1 [Example 357, 2-(2-(((2-amino-5-(2-(difluoromethyl)-6-methylpyridin-4-yl)-6-(4-fluorophenyl)pyrimidin-4-yl)oxy)methyl)-1-methyl-1H-benzo[d]imidazol-5-yl)propan-2-ol] | 3910 nM and 3930 nM
23 | CCn1c(COc2nc(N)nc(-c3ccc(F)cc3)c2-c2cc(C)nc(C(F)F)c2)n[nH]c1=O [Example 340, 5-(((2-amino-5-(2-(difluoromethyl)-6-methylpyridin-4-yl)-6-(4-fluorophenyl)pyrimidin-4-yl)oxy)methyl)-4-ethyl-2,4-dihydro-3H-1,2,4-triazol-3-one] | 4080 nM
